Results on twelve compounds are retold here after publication PMC10096175, “An In Vitro Antimicrobial, Anticancer and Antioxidant Activity of N–[(2–Arylmethylthio)phenylsulfonyl]cinnamamide Derivatives” (Molecules, 2023).

For data set [1], the system named is S. aureus ATCC 6538. Description: MIC determination, reference strain (microdilution). It counts as cell-based. The settings on record: Staphylococcus aureus, ATCC6538. (In general: Broth dilution looks for growth in wells or tubes with falling amounts of substance.)
The subject of data set [2] is S. epidermidis ATCC 14990. The description is as above. Type of data set: cell-based. As to conditions: Staphylococcus epidermidis, ATCC14990.
The next data set deals with E. hirae ATCC 10541. Described as above. Type of data set: cell-based. The settings on record: Enterococcus hirae, ATCC10541.
For another data set, the system named is E. faecalis ATCC 51299. The data set is described as above. The settings on record: Enterococcus faecalis, ATCC51299. It counts as cell-based.
A further data set has as its system B. subtilis ATCC 6633. The description is as above. As to conditions: Bacillus subtilis, ATCC6633. Type of data set: cell-based.
The next data set relates to C. diphtheriae. The description is as above. It counts as cell-based. The settings on record: Corynebacterium diphtheriae.
The test system of the next data set is C. albicans ATCC 10231. Description: MIC determination, reference fungal strain (microdilution). It counts as cell-based. The settings on record: Candida albicans, ATCC10231.
The subject of a further data set is E. coli ATCC 8739. Description: MIC determination, reference strain (microdilution). Type of data set: cell-based. The settings on record: Escherichia coli, ATCC8739.
Data set [3] concerns S. aureus ATCC 6538. Description: Blood bacteriostatic activity test in sheep blood. The settings on record: 24 h, 37 °C, t0 1.30 × 10^8, control t24 2.28 × 10^9. It counts as cell-based, Staphylococcus aureus. How it is done:
(§1) The manifestation of the bactericidal properties of chemical compounds is low minimum bactericidal concentration (MBC) values, which allows many groups of researchers to check the killing rate over time (time killing tests). It is an important element in determining the strength and speed of action of a compound on bacteria. Such studies are usually carried out in bacterial media, without additional factors influencing the results.
(§2) This step was carried out on two types of bacteria, S. aureus ATCC 6538 (Figure 8 and Table 2) and S. epidermidis ATCC 14 990 (Figure 9 and Table 3).
(§3) The number of bacteria at the initial time (t0) was 1.30 × 10^8 CFU/mL for S. aureus and 1.70 × 10^7 CFU/mL for S. epidermidis. Live bacterial cells were assayed after 24 h of incubation at 37 °C. […] Bacterial controls without compounds grew unhindered and after 24 h (t24) were 2.28 × 10^9 for S. aureus and 5.10 × 10^8 CFU/mL for S. epidermidis. […] It can be assumed that the tested compounds were not related to any fraction of the blood. Attention should be paid to the S. epidermidis tests and the difference between the number of bacteria at t0 and after 24 h of incubation for each compound. The number of bacteria at t0 was 1.70 × 10^7 CFU/mL and after 24 h it decreased to, e.g., 9.40 × 10^6 CFU/mL for compounds 16e and 7.80 × 10^6 CFU/mL for compound 17c. It can be assumed that the tested compounds after being added to blood samples prevented bacteria from multiplying. However, under these conditions, the phagocytic cells take up the bacteria. […] This can be explained by much greater variety of mechanisms of action of S. aureus against phagocytic cells than of S. epidermidis. This can be integrated with the bacterial cell compounds, e.g., protein A, as well as enzymes that bacteria can secrete outside the cell, e.g., coagulase and staphylokinase. Additional studies should be conducted to check how the tested compounds affect the enzymes secreted by S. aureus.
(§4) The assay was performed as previously described by with a modification. Pure sheep blood was used for the research. Two strains of bacteria S. aureus ATCC 6538 and S. epidermidis ATCC 14990 were used with an inoculum density of approximately 10^8 CFU/mL at 0 time. The final concentration of the compounds was 0.5, 1, 2, 4, and 8 µg/mL, and the final volume of the assay tube was 1 mL. Bacterial survivors were determined on MH agar plates (CFU/mL) at 24 h after exposure.

For data set [4], the system named is S. epidermidis ATCC 14990. Description: Blood bacteriostatic activity test in sheep blood. Type of data set: cell-based, Staphylococcus epidermidis. The settings on record: 24 h, 37 °C, t0 1.70 × 10^7, control t24 5.10 × 10^8. The procedure:
as §1, §2, §3, §4

The test system of a further data set is HeLa cells. Description: MTT assay. Type of data set: cell-based, human. The settings on record: Homo sapiens, HeLa, 24 h. Background: Formazan colour is commonly taken as a measure of viable cells.
For the next data set, the system named is SKOV-3 cells. Description: MTT assay. Type of data set: cell-based, human. As to conditions: Homo sapiens.
For the next data set, the system named is MCF-7 cells. Description: MTT assay. It counts as cell-based, human. The settings on record: Homo sapiens.
Another data set has as its system HEK-293 cells. Description: MTT assay, noncancerous cells. As to conditions: Homo sapiens, HEK293, 24 h. It counts as cell-based.
A short description of a further data set: DPPH assay. The settings on record: DPPH radical scavenging; 40 min, room temperature. The procedure:
The DPPH assay was performed spectrophotometrically. The amount of 30 µL of different concentrations of samples, dissolved in methanol/DMSO (9/1 v/v), was mixed with 170 µL of 0.06 mM DPPH methanolic solution and completed with methanol to a final volume of 300 µL. DPPH methanolic solution with methanol/DMSO (9/1 v/v) was used as a control. After 40 min of incubation at room temperature in the dark, the absorbance was analyzed at λ = 510 nm by a 96-well microplate reader (Epoch, BioTek System, Santa Clara, CA, USA). Ascorbic acid was used as a standard.
DPPH inhibition was calculated by the following equation:DPPH Inhibition (%) = [Acontrol − Asample)/Acontrol] × 100%
(§5) IC50 values of the samples were calculated using program GraFit v. 7.0 (Erithacus Software). The analysis was performed three times, with tree replications in each (n = 9). Statistical analysis was performed with one-way ANOVA with Tuckey’s post-hoc test.
Background: Loss of DPPH colour is used to gauge radical scavenging.

A short description of the next data set: ABTS assay. As to conditions: ABTS radical scavenging; 10 min, 30 °C. The procedure: The ABTS assay was performed spectrophotometrically. […] ABTS solution with methanol/DMSO (9/1 v/v) was used as a control. After 10 min of incubation at 30 °C in the dark, the absorbance was analyzed at λ = 750 nm by a 96-well microplate reader (Epoch, BioTek System, Santa Clara, CA, USA). Ascorbic acid was used as a standard.
ABTS inhibition was calculated by the following equation:ABTS Inhibition (%) = [Acontrol − Asample)/Acontrol] × 100%
as §5

A further data set is described as follows: in vitro. As to conditions: sheep, pH 7.
Data set [5] deals with quorum sensing system of C. violaceum. On the set-up: method as in doi:10.1016/j.ibiod.2018.06.003. As to conditions: cited from earlier work.

Converted amounts (≈) assume the structure as drawn. Like-named read-outs stand apart in the source and are kept apart here.

For the compound `Cc1cc(S(=O)(=O)NC(=O)C=Cc2ccccc2)c(SCc2cccc3ccccc23)cc1Cl` [Compound 16a, N–[4–Chloro–5–methyl–2–(naphthalen–1–ylmethylthio)benzenesulfonyl]cinnamamide], the MIC (as a rule, the lowest concentration that inhibits growth of the organism) came out at 1 ± 0.29 µg/mL (≈ 1.97 µM) in the data set with S. aureus ATCC 6538 [1]; 2 ± 0.58 µg/mL (≈ 3.94 µM) in data set [2]; 4 ± 0.15 µg/mL (≈ 7.87 µM) in the data set on E. hirae ATCC 10541; 2 ± 0.58 µg/mL (≈ 3.94 µM) against E. faecalis ATCC 51299; 62.5 ± 0.29 µg/mL (≈ 123 µM) in the data set on B. subtilis ATCC 6633; 62.5 ± 0.29 µg/mL (≈ 123 µM) with C. diphtheriae. Besides, the minimal inhibitory concentration (MIC) with C. albicans ATCC 10231 and against E. coli ATCC 8739 was over 125 µg/mL throughout. The “Number of viable cells of Staphylococcus aureus” value is recorded as 1.23 × 10^8 CFU/mL with S. aureus ATCC 6538 [3] (1 µg/mL), 7.50 × 10^8 CFU/mL in the data set with S. aureus ATCC 6538 [3] (2 µg/mL), 8.10 × 10^8 CFU/mL in the data set on S. aureus ATCC 6538 [3] (4 µg/mL) and 1.29 × 10^8 CFU/mL in the data set on S. aureus ATCC 6538 [3] (8 µg/mL). The “Number of viable cells of Staphylococcus epidermidis” value in [4] (1 µg/mL) was 3.00 × 10^6 CFU/mL; in data set [4] (2 µg/mL) it was 4.00 × 10^6 CFU/mL; in data set [4] (4 µg/mL), 1.10 × 10^6 CFU/mL; in [4] (8 µg/mL) it was 2.50 × 10^6 CFU/mL. Besides, the IC50 – broadly, the point on the concentration scale where inhibition reaches its midpoint – in the data set on HeLa cells was 13.7 ± 1.12 µg/mL (≈ 27 µM); in the data set with SKOV-3 cells (SK-OV-3, 24 h) it was 11.8 ± 0.8 µg/mL (≈ 23.3 µM); in the data set on MCF-7 cells (MCF7, 24 h) it was 14.3 ± 0.28 µg/mL (≈ 28.2 µM); in the data set on HEK-293 cells it was 13.6 ± 0.19 µg/mL (≈ 26.7 µM). Moreover, the “IC50 DPPH” value in “DPPH assay” is 1048.33 ± 0.48 µg/mL (≈ 2060 µM). Further, the “IC50 ABTS” value in “ABTS assay” stood at 717.99 ± 1.01 µg/mL (≈ 1410 µM). The same compound displayed a hemolysis at 24 h, 125 µg/mL in the data set “in vitro” of 43%.

For the compound `C=CCOC(=O)C=Cc1ccccc1` [allyl cinnamate], the Quorum sensing inhibition entry in data set [5] (at 1 mM) is given as “completely inhibit”.

As to `O=C(O)C=Cc1ccc([N+](=O)[O-])cc1` [4–nitrocinnamic acid], in [5] (at 5 mM), the Quorum sensing inhibition result is reported as “completely inhibit”.

Consider `OCC=Cc1ccccc1` [cinnamyl alcohol], for which the Quorum sensing inhibition entry in [5] (at 1 mM) is listed as “completely inhibit”.

For `O=C1O[C@H]([C@@H](O)CO)C(O)=C1O` [Ascorbic acid, ascorbic acid, reference compound], the “IC50 DPPH” value in the data set “DPPH assay” came out at 10.78 ± 0.11 µg/mL (≈ 61.2 µM). Further, the “IC50 ABTS” value in the data set “ABTS assay” is on record as 18.99 ± 0.03 µg/mL (≈ 108 µM).

Take `CC(=O)N1CCN(c2ccc(OCC3COC(Cn4ccnc4)(c4ccc(Cl)cc4Cl)O3)cc2)CC1` (stereo not shown) [Ketoconazole, reference compound]: in the data set on C. albicans ATCC 10231 (C. albicans ATCC 10231, read-out: MIC), the MIC was over 125 µg/mL.

Take `CC[C@]1(O)C[C@@H]2CN(CCc3c([nH]c4ccccc34)[C@@](C(=O)OC)(c3cc4c(cc3OC)N(C)[C@H]3[C@@](O)(C(=O)OC)[C@H](OC(C)=O)[C@]5(CC)C=CCN6CC[C@]43[C@@H]65)C2)C1` [V. sulphate, Vinblastine sulphate, reference compound]: the 50% inhibitory concentration (IC50) in the data set with HeLa cells (MTT, 24 h treatment, read-out: IC50) amounted to 0.005 ± 0.0004 µg/mL; with SKOV-3 cells (SK-OV-3, SKOV-3, MTT, 24 h treatment, read-out: IC50) it was 0.008 ± 0.0003 µg/mL; in the data set on MCF-7 cells (MCF7, MCF-7, MTT, 24 h treatment, read-out: IC50) it was 0.007 ± 0.0008 µg/mL.

Consider `CC(=Cc1ccccc1)C(=O)O` [α–methylcinnamic acid], for which the Quorum sensing inhibition result in data set [5] (at 5 mM) is given as “completely inhibit”.

Take `NC(=O)C=Cc1ccccc1` [cinnamamide]: the Quorum sensing inhibition result in data set [5] (at 5 mM) is “completely inhibit”.

As to `O=C(O)C=Cc1ccc2c(c1)OCO2` [3,4–(methylenedioxy)cinnamic acid], in data set [5] (at 5 mM), the Quorum sensing inhibition result is “completely inhibit”.

For `O=C(O)/C=C/c1ccccc1` [cinnamic acid], the Quorum sensing inhibition entry in data set [5] (at 5 mM) is listed as “completely inhibit”.

As for `O=C(O)C=Cc1ccc(Cl)cc1` [4–chlorocinnamic acid], the Quorum sensing inhibition entry in data set [5] (at 5 mM) is recorded as “completely inhibit”.
